Measured values taken from US5883098A, “Piperazine derivatives” (Fujisawa Pharmaceutical Co., Ltd., priority 1993, dated 1999).
Where a name gives a salt, the structure may show the parent alone.

biological target: T1, guinea pig lung membranes (Cavia porcellus, UniProt P30547); assay: ^3 H-Substance P binding to guinea pig lung membranes; settings: at the concentration of 1 μg/ml; read-out: inhibition rate of ^3 H-Substance P binding to guinea pig lung membranes
T1 construct: The trachea and lung were removed and homogenized in ice-cold buffer; from tissue; host or cells: guinea pig (male Hartley strain) trachea and lung, crude membrane fraction
T1 sequence (P30547 whole entry): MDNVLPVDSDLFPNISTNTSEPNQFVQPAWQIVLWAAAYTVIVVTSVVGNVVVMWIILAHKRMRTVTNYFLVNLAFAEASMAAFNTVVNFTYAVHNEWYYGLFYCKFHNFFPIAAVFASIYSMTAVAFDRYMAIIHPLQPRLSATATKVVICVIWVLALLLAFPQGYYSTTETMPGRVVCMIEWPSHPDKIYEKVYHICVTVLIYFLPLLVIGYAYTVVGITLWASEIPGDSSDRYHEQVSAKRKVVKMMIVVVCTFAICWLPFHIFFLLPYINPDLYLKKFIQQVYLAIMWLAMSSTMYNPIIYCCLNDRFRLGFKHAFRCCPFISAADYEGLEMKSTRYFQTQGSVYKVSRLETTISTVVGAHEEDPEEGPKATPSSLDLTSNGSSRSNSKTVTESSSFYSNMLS
Protocol: ^3 H-Substance P Binding to Guinea Pig Lung Membranes Test Method
^3 H-Substance P Binding to Guinea Pig Lung Membranes
(a) Crude lung membrane preparation
Male Hartly strain guinea pigs were stunned and bled. The trachea and lung were removed and homogenized in ice-cold buffer (0.25M sucrose, 50 mM Tris-HCl pH 7.5, 0.1 mM EDTA) by using Polytoron (Kinematica). The homogenate was centrifuged (1000×g, 10 minutes) to remove tissue clumps and the supernatant was centrifuges (35000×g, 20 minutes) to yield pellet. The pellet was resuspended in buffer (5 mM Tris-HCl pH 7.5), homogenized with a teflon homogenizer and centrifuged (35000×g, 20 minutes) to yield pellet which was referred to as crude membrane fractions. The obtained pellet was resuspended in buffer (50 mM Tris-HCl pH 7.5) and stored at -70° C. until use.
(b) ^3 H-Substance P binding to preparation membrane
Frozen crude membrane fractions were thawed and resuspended in Medium 1 (50 mM Tris-HCl pH 7.5, 1 mM MnCl2, 0.02% BSA, 2 μg/ml chymostatin, 4 μg/ml leupeptin, 40 μg/ml bacitracin, 10 μM phosphoramidon). ^3 H-Substance P (1 nM) was incubated with 100 μl of the membrane preparations with or without test compounds in Medium 1 at 25° C. for 30 minutes in a final volume of 500 μl. At the end of the incubation period, 5 ml ice-cold 50 mM Tris-HCl buffer was added to each tube and its content was quickly filtered over a Wahtman GF/B glass filter (pretreated with 0.1% polyethylene imine for 3 hours prior to use) under aspiration. Each of the filters was then washed four times with 5 ml of ice-cold buffer (50 mM Tris-HCl pH 7.5). […] All data presented are specific binding defined as that displaceable by 5 μM unlabeled Substance P.

inhibition at 1 µg/mL [%]	Compound
> 90	CN(C)C(=O)N1CCN(C(=O)c2cc(C(F)(F)F)cc(C(F)(F)F)c2)[C@H](Cc2c[nH]c3ccccc23)C1 [Example 19-1, (2R)-1-[3,5-Bis(trifluoromethyl)benzoyl]-2-(1H-indol-3-yl-methyl) -4-(N,N-dimethylaminocarbonyl)piperazine]
> 90	O=C(CCc1ccccc1)N1CCN(C(=O)c2cc(C(F)(F)F)cc(C(F)(F)F)c2)[C@H](Cc2ccccc2)C1 [Example 17-4, (2R)-2-Benzyl-1-[3,5-bis(trifluoromethyl)benzoyl]-4-(3-phenylpropionyl)piperazine]
> 90	O=C(/C=C/c1ccc([N+](=O)[O-])cc1)N1CCN(C(=O)c2cc(C(F)(F)F)cc(C(F)(F)F)c2)[C@H](Cc2ccccc2)C1 [Example 17-24, (2R)-2-Benzyl-1-[3,5-bis(trifluoromethyl)benzoyl]-4-(4-nitro-trans-cinnamoyl)piperazine]
> 90	O=C(CCCc1ccccc1)N1CCN(C(=O)c2cc(C(F)(F)F)cc(C(F)(F)F)c2)[C@H](Cc2ccccc2)C1 [Example 17-5, (2R)-2-Benzyl-1-[3,5-bis(trifluoromethyl)benzoyl]-4-(4-phenylbutyryl)piperazine]
> 90	O=C(CCc1c[nH]c2ccccc12)N1CCN(C(=O)c2cc(C(F)(F)F)cc(C(F)(F)F)c2)[C@H](Cc2ccccc2)C1 [Example 17-10, (2R)-2-Benzyl-1-[3,5-bis(trifluoromethyl)benzoyl]-4-[3-(1H-indol-3-yl)propionyl]piperazine]
> 90	O=C(/C=C/c1ccc(F)cc1)N1CCN(C(=O)c2cc(C(F)(F)F)cc(C(F)(F)F)c2)[C@H](Cc2c[nH]c3ccccc23)C1 [Example 17-2, (2R)-1-[3,5-Bis(trifluoromethyl)benzoyl]-2-(1H-indol-3-yl-methyl)-4-(4-fluoro-trans-cinnamoyl)piperazine]
> 90	O=C(c1cc(C(F)(F)F)cc(C(F)(F)F)c1)N1CCNC[C@H]1Cc1ccccc1 [Example 7-7]
> 90	CC(=O)N1CCN(C(=O)c2cc(C(F)(F)F)cc(C(F)(F)F)c2)[C@H](Cc2ccc(C)c(C)c2)C1 [Example 19-10, (2R)-4-Acetyl-1-[3,5-bis(trifluoromethyl)benzoyl]-2-(3,4-dimethylbenzyl)piperazine]
> 90	CN(C)C(=O)N1CCN(C(=O)c2cc(C(F)(F)F)cc(C(F)(F)F)c2)[C@H](Cc2ccccc2)C1 [Example 19-4, (2R)-2-Benzyl-1-[3,5-bis(trifluoromethyl)benzoyl]-4-(N,N-dimethylcarbamoyl)piperazine]
> 90	O=C(CCCc1c[nH]c2ccccc12)N1CCN(C(=O)c2cc(C(F)(F)F)cc(C(F)(F)F)c2)[C@H](Cc2ccccc2)C1 [Example 17-11, (2R)-2-Benzyl-1-[3,5-bis(trifluoromethyl)benzoyl]-4-[4-(1H-indol-3-yl)butyryl]piperazine]
> 90	O=C(/C=C/c1ccccc1)N1CCN(C(=O)c2cc(C(F)(F)F)cc(C(F)(F)F)c2)[C@H](Cc2c[nH]c3ccccc23)C1 [Example 17-1, (2R)-1-[3,5-Bis(trifluoromethyl)benzoyl]-2-(1H-indol-3-yl-methyl)-4-(trans-cinnamoyl)piperazine]

Compound	inhibition at 1 µg/mL [%]
Cc1ccc(C[C@@H]2CNCCN2C(=O)c2cc(C(F)(F)F)cc(C(F)(F)F)c2)cc1C [Example 24-8, (2R)-1-[3,5-Bis(trifluoromethyl)benzoyl]-2-(3,4-dimethylbenzyl) piperazine hydrochloride]	> 90
CN(C)CC(=O)N1CCN(C(=O)c2cc(C(F)(F)F)cc(C(F)(F)F)c2)[C@H](Cc2c[nH]c3ccccc23)C1 [Example 24-4, (2R)-1-[3,5-Bis(trifluoromethyl)benzoyl]-2-(1H-indol-3-yl-methyl)-4-[2-(N,N-dimethylamino)acetyl]-piperazine hydrochloride]	> 90

biological target: T2, h-NK1 receptors (Homo sapiens, UniProt P25103); assay: ^125 I-BH-Substance P binding to h-NK1 receptors; settings: at the concentration of 0.1 μg/ml; CHO cell membranes expressing h-NK1 receptors; read-out: inhibition rate of ^125 I-BH-Substance P binding to h-NK1 receptors
T2 construct: expressed in transfected cells; host or cells: CHO cells
T2 sequence (P25103 whole entry): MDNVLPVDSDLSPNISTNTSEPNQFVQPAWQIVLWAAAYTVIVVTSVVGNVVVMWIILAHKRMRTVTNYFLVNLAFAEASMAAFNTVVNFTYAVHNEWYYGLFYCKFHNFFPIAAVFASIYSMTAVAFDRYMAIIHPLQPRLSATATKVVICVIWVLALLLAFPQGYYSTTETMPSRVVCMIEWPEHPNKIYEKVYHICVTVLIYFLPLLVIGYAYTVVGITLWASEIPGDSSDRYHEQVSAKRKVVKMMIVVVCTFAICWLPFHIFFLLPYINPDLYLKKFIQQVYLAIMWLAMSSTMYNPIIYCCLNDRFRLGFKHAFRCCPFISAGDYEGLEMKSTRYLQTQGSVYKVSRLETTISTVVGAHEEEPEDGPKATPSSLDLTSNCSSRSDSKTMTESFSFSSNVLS
Protocol: ^125 I-BH-Substance P Binding to h-NK1 Receptors Test Method
^125 I-BH-Substance P Binding to h-NK1 Receptors
(a) Crude CHO cell membrane preparation
CHO cells permanently expressing h-NK1 receptors were harvested and homogenized with a Dounce homogenizer at 4° C. in a buffer (0.25M sucrose, 25 mM Tris-HCl pH 7.4, 10 mM MgCl2, 1 mM EDTA, 5 μg/ml p-APMSF). The homogenate was centrifuged (500×g, 10 minutes), and the pellet was resuspended in the same buffer, homogenized, and centrifuged. The two supernatants were combined and centrifuged (100,000×g, 1 hour). The crude cell membranes thus isolated were resuspended in buffer (25 mM Tris-HCl pH 7.4, 10 mM MgCl2, 1 mM EDTA, 5 μg/ml p-APMSF) and stored at -80° C. until use.
(b) ^125 I-BH-Substance P binding to preparation membrane Cell membranes (6 μg/ml) were incubated with ^125 I-BH-Substance P (0.1 nM) with or without test compounds in 0.25 ml of Medium 2(50 mM Tris-HCl pH 7.4, 5 mM MnCl2, 20 μg/ml chymostatin, 40 μg/ml bacitracin, 4 μg/ml leupeptin, 5 μg/ml p-APMSF, 200 μg/ml BSA) at 22° C. for 90 minutes. At the end of the incubation period, the content was quickly filtered over a Wahtman GF/C glass filter (pretreated with 0.1% polyethylene imine for 3 hours prior to use) under aspiration. Each of the filters was then washed four times with 5 ml of buffer (50 mM Tris-HCl pH 7.4, 5 mM MnCl2). The radioactivity was counted by using Auto Gamma counter (Packerd RIASTAR 5420A). All data presented are specific binding defined as that displaceable by 3 μM unlabeled Substance P.

inhibition at 0.1 µg/mL [%]	Compound
> 90	O=C(/C=C/c1cccnc1)N1CCN(C(=O)c2cc(C(F)(F)F)cc(C(F)(F)F)c2)[C@H](Cc2c[nH]c3ccccc23)C1 [Example 17-57, (2R)-1-[3,5-Bis(trifluoromethyl)benzoyl]-2-(1H-indol-3-yl-methyl)-4-[3-(3-pyridyl)-trans-acryloyl]-piperazine]
> 90	O=C(/C=C/C1CCCCC1)N1CCN(C(=O)c2cc(C(F)(F)F)cc(C(F)(F)F)c2)[C@H](Cc2c[nH]c3ccccc23)C1 [Example 17-50, (2R)-1-[3,5-Bis(trifluoromethyl)benzoyl]-4-[(3-cyclo-hexyl)-trans-acryloyl]-2-(1H-indol-3-yl-methyl)-piperazine]
> 90	CCCC(=O)Nc1nc(CN2CCN(C(=O)c3cc(C(F)(F)F)cc(C(F)(F)F)c3)[C@H](Cc3c[nH]c4ccccc34)C2)cs1 [Example 79-6]
> 90	NC(=O)CN1CCN(C(=O)c2cc(C(F)(F)F)cc(C(F)(F)F)c2)[C@H](Cc2c[nH]c3ccccc23)C1 [Example 25-2, (^2 R)-1-[3,5-Bis(trifluoromethyl)benzoyl]-2-(1H-indol-3-yl-methyl)-4-(carbamoylmethyl)piperazine]
> 90	CC(C)(C)C(=O)Nc1nc(CN2CCN(C(=O)c3cc(C(F)(F)F)cc(C(F)(F)F)c3)[C@H](Cc3c[nH]c4ccccc34)C2)cs1 [Example 79-4]
> 90	CNC(=O)CN1CCN(C(=O)c2cc(C(F)(F)F)cc(C(F)(F)F)c2)[C@H](Cc2c[nH]c3ccccc23)C1 [Example 26, (2R)-1-[3,5-bis (trifluoromethyl)benzoyl]-2-(1H-indol-3-yl-methyl)-4-(N-methylcarbamoylmethyl)piperazine hydrochloride]
> 90	CN1CCN(NC(=O)CN2CCN(C(=O)c3cc(C(F)(F)F)cc(C(F)(F)F)c3)[C@H](Cc3c[nH]c4ccccc34)C2)CC1 [Example 77, (2R)-1-[3,5-bis(trifluoromethyl)benzoyl]-2-(1H-indol-3-ylmethyl)-4-[N-(4-methyl-1-piperazinyl)carbamoylmethyl]piperazine]
> 90	Cc1ccc(C[C@@H]2CN(C(=O)/C=C/C3CCCCC3)CCN2C(=O)c2cc(C(F)(F)F)cc(C(F)(F)F)c2)cc1C [Example 17-60, (2R)-1-[3,5-Bis(trifluoromethyl)benzoyl]-2-(3,4-dimethylbenzyl)-4-(3-cyclohexyl-trans-acryloyl)piperazine]
> 90	O=C(C1CC1)N1CCN(C(=O)c2cc(C(F)(F)F)cc(C(F)(F)F)c2)[C@H](Cc2c[nH]c3ccccc23)C1 [Example 17-56, (2R)-1-[3,5-Bis(trifluoromethyl)benzoyl]-4-(cyclo-propylcarbonyl)-2-(1H-indol-3-yl-methyl)piperazine]
> 90	CC(=O)Nc1nc(/C=C/C(=O)N2CCN(C(=O)c3cc(C(F)(F)F)cc(C(F)(F)F)c3)[C@H](Cc3c[nH]c4ccccc34)C2)cs1 [Example 21-3, (2R)-4-[3-[2-(Acetylamino)thiazol-4-yl]-trans-acryloyl]-1-[3,5-bis(trifluoromethyl)benzoyl]-2-(1H-indol-3-yl-methyl)piperazine]
> 90	CS(=O)(=O)N1CCN(C(=O)c2cc(C(F)(F)F)cc(C(F)(F)F)c2)[C@H](Cc2c[nH]c3ccccc23)C1 [Example 19-13, (2R)-1-[3,5-Bis(trifluoromethyl)benzoyl]-2-(1H-indol-3-yl-methyl)-4-mesylpiperazine]
